Drawing on patent US10626112B2, “Heterocyclic sulfonamide derivative and medicine comprising same” (EA PHARMA CO., LTD., priority 2014, dated 2020), this text covers IC50 for eleven compounds.

For the test, the target named is human TRPA1 (Homo sapiens (Human), UniProt O75762). In words: Measurement of TRPA1 antagonist activity (1): intracellular calcium increase. Type of test: cell-based. Conditions: 293T cells transfected with human TRPA1 expression plasmid; allylisothiocyanate 20 μM stimulation; intracellular calcium fluorescence; read-out: hTRPA1 IC50. The procedure, abridged:
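Calcium-flux readout of TRPA1 block: compound given 10 min before 20 μM (final) allylisothiocyanate, fluorescence tracked 5 min. Cells were 293T transiently expressing human TRPA1, dye-loaded 1 hr in HBSS, 20 mM HEPES, pH 7.2. Inhibition scaled between agonist-only and buffer-only responses; IC50 by sigmoid fitting.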

Chain of human TRPA1 (O75762 whole entry): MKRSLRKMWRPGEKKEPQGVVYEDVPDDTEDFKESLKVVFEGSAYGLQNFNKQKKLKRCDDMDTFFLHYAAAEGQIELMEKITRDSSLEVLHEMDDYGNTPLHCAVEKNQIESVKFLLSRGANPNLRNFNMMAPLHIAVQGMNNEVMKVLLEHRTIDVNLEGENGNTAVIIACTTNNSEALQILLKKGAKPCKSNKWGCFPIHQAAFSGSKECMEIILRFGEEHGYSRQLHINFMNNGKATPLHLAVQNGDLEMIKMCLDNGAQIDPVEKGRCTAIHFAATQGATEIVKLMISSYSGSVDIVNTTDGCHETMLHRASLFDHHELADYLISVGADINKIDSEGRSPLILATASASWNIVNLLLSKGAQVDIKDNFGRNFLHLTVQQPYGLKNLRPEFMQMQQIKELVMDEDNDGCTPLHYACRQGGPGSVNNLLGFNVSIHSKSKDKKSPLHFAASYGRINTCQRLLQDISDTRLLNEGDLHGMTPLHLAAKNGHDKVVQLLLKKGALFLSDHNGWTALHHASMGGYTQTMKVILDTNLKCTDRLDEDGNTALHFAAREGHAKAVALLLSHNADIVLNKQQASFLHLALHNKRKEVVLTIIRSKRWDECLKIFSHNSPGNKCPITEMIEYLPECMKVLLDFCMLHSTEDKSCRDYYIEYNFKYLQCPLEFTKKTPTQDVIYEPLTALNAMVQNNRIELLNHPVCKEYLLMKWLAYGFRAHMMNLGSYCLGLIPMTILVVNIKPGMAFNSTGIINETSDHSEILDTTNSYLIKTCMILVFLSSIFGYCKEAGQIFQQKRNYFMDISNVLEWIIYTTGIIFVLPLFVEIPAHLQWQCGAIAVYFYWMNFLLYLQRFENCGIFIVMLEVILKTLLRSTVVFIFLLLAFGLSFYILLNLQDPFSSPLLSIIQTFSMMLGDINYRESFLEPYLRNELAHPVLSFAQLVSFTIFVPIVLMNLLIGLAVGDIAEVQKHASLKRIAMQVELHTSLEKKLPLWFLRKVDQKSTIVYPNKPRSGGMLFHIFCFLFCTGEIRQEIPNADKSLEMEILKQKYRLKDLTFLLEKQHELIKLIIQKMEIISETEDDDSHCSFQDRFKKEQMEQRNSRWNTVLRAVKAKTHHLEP

For the compound `O=C(NCc1cc(-c2ccc(C(F)(F)F)cc2)ncn1)[C@@H]1CCCN1S(=O)(=O)c1cc2cnccc2o1` [Example 270, (2S)-1-furo[3,2-c]pyridin-2-ylsulfonyl-N-[[6-[4-(trifluoromethyl)phenyl]-pyrimidin-4-yl]methyl]pyrrolidine-2-carboxamide], the half-maximal inhibitory concentration (IC50) worked out at 3.8 nM.

For the compound `O=C(NCc1ccnc(-c2ccc(C(F)(F)F)cc2O)c1)[C@@H]1CCCN1S(=O)(=O)c1cc2cnccc2o1` [Example 271, (2S)-1-furo[3,2-c]pyridin-2-ylsulfonyl-N-[[2-[2-hydroxy-4-(trifluoromethyl)phenyl]-4-pyridyl]methyl]pyrrolidine-2-carboxamide], the 50% inhibitory concentration (IC50) was 4.4 nM.

As to `O=C(NCc1cc(-c2ccc(C(F)(F)F)cn2)ccn1)[C@@H]1CCCN1S(=O)(=O)c1cc2cnccc2o1` [Example 272, (2S)-1-furo[3,2-c]pyridin-2-ylsulfonyl-N-[[4-[5-(trifluoromethyl)-2-pyridyl]-2-pyridyl]methyl]pyrrolidine-2-carboxamide], the concentration for half-maximal inhibition (IC50) came to 12 nM. Take `O=C(NCc1ccc(O)c(-c2ccc(C(F)(F)F)cn2)c1)[C@@H]1CCCN1S(=O)(=O)c1cc2cnccc2o1` [Example 273, (2S)-1-furo[3,2-c]pyridin-2-ylsulfonyl-N-[[4-hydroxy-3-[5-(trifluoromethyl)-2-pyridyl]phenyl]methyl]-pyrrolidine-2-carboxamide]: the IC50 was found to be 1.6 nM. As for `O=C(NCc1cccc(OCc2ccnc(C(F)(F)F)c2)c1)[C@@H]1CCCN1S(=O)(=O)c1cc2cnccc2o1` [Example 274, (2S)-1-furo[3,2-c]pyridin-2-ylsulfonyl-N-[[3-[[2-(trifluoromethyl)-4-pyridyl]methoxy]phenyl]-methyl]pyrrolidine-2-carboxamide], the half-maximal inhibitory concentration (IC50) is 9.8 nM. On to `C#CCN([C@@H](C)C(=O)NCc1ccnc(-c2ccc(C(F)(F)F)cc2O)c1)S(=O)(=O)c1cc2cc(F)ccc2o1` [Example 275, (2S)-2-[(5-fluorobenzofuran-2-yl)sulfonyl-2-propynylamino]-N-[[2-[2-hydroxy-4-(trifluoromethyl)phenyl]-4-pyridyl]methyl]propanamide], for which the 50% inhibitory concentration (IC50) was found to be 3.8 nM.

For the compound `CC(C)(C)OC(=O)Nc1ccccc1-c1cc(CNC(=O)[C@@H]2CCCN2S(=O)(=O)c2cc3ccccc3o2)ccn1` [Example 276, N-[2-[4-[[[(2S)-1-(benzofuran-2-ylsulfonyl)pyrrolidine-2-carbonyl]amino]methyl]-2-pyridyl]phenyl]carbamic acid tert-butyl], the IC50 came to 150 nM. In the case of `O=C(NCc1ccnc(-c2cc(Cl)cs2)c1)[C@@H]1CCCN1S(=O)(=O)c1cc2ccccc2o1` [Example 277, (2S)-1-(benzofuran-2-ylsulfonyl)-N-[[2-(4-chloro-2-thienyl)-4-pyridyl]methyl]pyrrolidine-2-carboxamide] it was 89 nM. Regarding `CSc1ccc(-c2cc(CNC(=O)[C@@H]3CCCN3S(=O)(=O)c3cc4ccccc4o3)ccn2)cc1` [Example 278, (2S)-1-(benzofuran-2-ylsulfonyl)-N-[[2-(4-methylsulfanylphenyl)-4-pyridyl]methyl]pyrrolidine-2-carboxamide], the half-maximal inhibitory concentration (IC50) stood at 16 nM.

Turning to `O=C(NCc1cncc(-c2ccc(OC(F)(F)F)cc2)c1)[C@@H]1CCCN1S(=O)(=O)c1cc2cc(F)ccc2o1` [Example 279, (2S)-1-(5-fluorobenzofuran-2-yl)sulfonyl-N-[[5-[4-(trifluoromethoxy)phenyl]-3-pyridyl]methyl]pyrrolidine-2-carboxamide], the concentration for half-maximal inhibition (IC50) was 2.8 nM. For the compound `O=C(NCc1cc(-c2ccc(C(F)(F)F)cc2O)ccn1)[C@@H]1CCCN1S(=O)(=O)c1cc2cc(F)ccc2o1` [Example 280, (2S)-1-(5-fluorobenzofuran-2-yl)sulfonyl-N-[[4-[2-hydroxy-4-(trifluoromethyl)phenyl]-2-pyridyl]methyl]pyrrolidine-2-carboxamide], the IC50 stood at 520 nM.
